# According to patent publication US12508273B2, “Beta-1,3′-galactosyllactose for the treatment of gut barrier function diseases” (N.V. Nutricia, priority 2019, dated 2025):
# Key:
# Format in all cases: cell-based, human
# [1] = tested on: Caco-2 cells; assay: Viability of Caco-2 cells exposed to DON; details: DON 4.2 M in complete cell medium, apical and basolateral
# Experimental: (§1) Caco-2 cell monolayers were thus grown in a transwell system, which is a model for intestinal barrier function. The monolayers were pretreated for 24 h with different GLs, including beta3′-GL, alpha3′-GL, beta4′-GL and beta6′-GL in a concentration of 0.75 wt % of the GL, before being exposed to the fungal toxin deoxynivalenol (DON), which is a trigger and model compound to impair intestinal barrier. DON was diluted to a final concentration of […] in complete cell medium and added to the apical side as well as to the basolateral side of the transwell inserts. […] Incubation with DON was 24 h.
# [2] = tested on: IL-8 (CXCL8) release by Caco-2 cells; assay: DON-induced IL-8 (CXCL8) release by Caco-2 cells, ELISA; details: DON alone 4.2 M, 24 h
# Experimental: as §1
# (§2) Measurements of the transepithelial electrical resistance (TEER) and lucifer yellow (LY) permeability were conducted to investigate barrier integrity. […] Results are expressed as a percentage of the initial value. For paracellular tracer flux assay the membrane impermeable lucifer yellow (LY) (Sigma, St Luis, MO, USA) was added in a concentration of 16 μg/ml to the apical compartment in the transwell plate for 4 h, and the paracellular flux was determined by measuring the fluorescence intensity in the basolateral compartment with a spectrophotofluorimeter (FLUOstar Optima, BMG Labtech, Offenburg, Germany) set at excitation and emission wavelengths of 410 and 520 nm, respectively. […]
# [3] = tested on: Caco-2 cell monolayer; assay: Transepithelial electrical resistance (TEER) of Caco-2 monolayers after DON-induced impairment
# Experimental: (§3) Caco-2 cells were used according to established methods. In brief: cells were cultured in Dulbecco's modified Eagle medium (DMEM) and seeded at a density of 0.3×10^5 cells into 0.3 cm^2 high pore density (0.4 μm) inserts with a polyethylene terephthalate membrane (BD Biosciences, Franklin Lakes, NJ, USA) placed in a 24-well plate. The Caco-2 cells were maintained in a humidified atmosphere of 95 air and 5% CO2 at 37° C. After 17-19 days of culturing, a confluent monolayer was obtained with a mean Transepithelial electrical resistance (TEER) exceeding 400 Ωcm^2 measured by a Millicell-Electrical Resistance System voltohm-meter (Millipore, Temecula, CA, USA).
# as §1
# Measurements of the transepithelial electrical resistance (TEER) and lucifer yellow (LY) permeability were conducted to investigate barrier integrity. For TEER measurements a Millicel-ERS voltohmmeter connected to a pair of chopsticks electrodes was used to measure the TEER values. Results are expressed as a percentage of the initial value. For paracellular tracer flux assay the membrane impermeable lucifer yellow (LY) (Sigma, St Luis, MO, USA) was added in a concentration of 16 μg/ml to the apical compartment in the transwell plate for 4 h, and the paracellular flux was determined by measuring the fluorescence intensity in the basolateral compartment with a spectrophotofluorimeter (FLUOstar Optima, BMG Labtech, Offenburg, Germany) set at excitation and emission wavelengths of 410 and 520 nm, respectively. Release of interleukin-8 (IL-8 or CXCL8), which is a typical marker for inflammation, was quantified in the medium of the apical side and the basolateral side of the Caco-2 transwell inserts in response to the treatments. CXCL8 concentrations were measured by using the human IL-8 ELISA assay (BD Biosciences, Pharmingem, San Diego, CA, USA) according to manufacturer's instructions. For more details on materials and methods see Akbari et al, 2016, Eur J Nutr. 56(5):1919-1930.
# Barrier function experiments were performed in a similar way as in example 2 using the following concentrations of Vivinal GOS (VGOS): 0 (Control), 0.25 wt % (VGOS 0.25), 0.5 wt % (VGOS 0.5), 0.75 wt % (VGOS 0.75), 1 wt % (VGOS 1), 1.5 wt % (VGOS 1.5) and 2 wt % (VGOS 2). For TOS concentrations of 0.25 wt % (TOS 0.25) and 0.5 wt % (TOS 0.5) were tested.
# [4] = tested on: Caco-2 cell monolayer; assay: Lucifer yellow (LY) paracellular flux across Caco-2 monolayers after DON-induced impairment; details: GL 0.75 wt %, 24 h pretreatment, then DON 4.2 M 24 h; FIGS. 1C, 1D
# Experimental: as §3, with “USA). […]” for “USA).”
# as §2
# [5] = GL 0.75 wt %, 24 h pretreatment, then DON 4.2 M 24 h
molecule,measurement,setting,value
"CC1=C[C@H]2O[C@@H]3[C@H](O)C[C@](C)([C@@]2(CO)[C@H](O)C1=O)[C@]31CO1 [DON, deoxynivalenol]",viability of the Caco-2 cells,[1],did not affect the viability
same,CXCL8 (IL-8) release,[2],increased CXCL8 (IL-8) release
"OC[C@H]1O[C@H](O[C@H]2[C@@H](O)[C@@H](CO)O[C@@H](O[C@H]3[C@H](O)[C@@H](O)C(O)O[C@@H]3CO)[C@@H]2O)[C@H](O)[C@@H](O)[C@H]1O (stereo partly drawn) [alpha3′-GL, Gal (alpha 1-3)-Gal (beta 1-4)-Glc]",effect on DON-induced loss of epithelial barrier integrity (TEER and LY flux),[3]; [5],did not prevent the DON-induced disrupted intestinal barrier
"OC[C@H]1O[C@@H](O[C@@H]2[C@H](O)[C@@H](O)[C@H](O[C@H]3[C@H](O)[C@@H](O)C(O)O[C@@H]3CO)O[C@@H]2CO)[C@H](O)[C@@H](O)[C@H]1O (stereo partly drawn) [beta4′-GL, Gal (beta 1-4)-Gal (beta 1-4)-Glc]",effect on DON-induced loss of epithelial barrier integrity (TEER and LY flux),[3]; [5],did not show a significant effect
"OC[C@H]1O[C@@H](OC[C@H]2O[C@@H](O[C@H]3[C@H](O)[C@@H](O)C(O)O[C@@H]3CO)[C@H](O)[C@@H](O)[C@H]2O)[C@H](O)[C@@H](O)[C@H]1O (stereo partly drawn) [beta6′-GL, Gal (beta 1-6)-Gal (beta 1-4)-Glc]",effect on DON-induced loss of epithelial barrier integrity (TEER and LY flux),[3]; [5],did not show a significant effect
Gal (beta 1-3)-Gal (beta 1-4)-Glc [beta3′-GL],concentration of beta3′-GL in TOS at which the barrier effect is observed,"[3]; Caco-2, DON challenge, beta3′-GL as part of TOS",lower than 0.17 wt %
same,effect on DON-induced loss of epithelial barrier integrity (TEER and LY flux),[3]; [5],prevented the DON-induced loss of epithelial barrier integrity
same,TEER after DON challenge,"[3]; GL 0.75 wt %, 24 h pretreatment, then DON 4.2 M 24 h, FIGS. 1A, 1B",increased TEER values
same,effect on DON-induced loss of epithelial barrier integrity (TEER and LY flux),"[3]; GL 0.75 wt %, 24 h pretreatment, then DON 4.2 M 24 h, listed as beta1,3′-galactosyllactose",prevented loss of epithelial barrier integrity to a much higher extent than other galactosyl-lactoses
same,LY flux after DON challenge,[4],reduction in the DON-affected LY flux
